According to the supplement of paper PMC13380429:

Key:
Conditions in all cases: 72 h
Caco-2 [1] = assay: cell viability relative to DMSO; higher = less toxic
Calu-3 [2] = assay: as above
HepG2 [3] = assay: as above
Vero E6 [4] = assay: as above
Caco-2 [5] = assay: relative viability EC50 (midpoint between 100% and the lowest measured viability); higher = less toxic
Calu-3 [6] = assay: as above
HepG2 [7] = assay: as above
Vero E6 [8] = assay: as above
Caco-2 [9] = assay: drug sensitivity score (DSS) for viability; higher = more toxic; extreme values may be limits of the assay
Calu-3 [10] = assay: as above
HepG2 [11] = assay: as above
Vero E6 [12] = assay: as above
U2OS [13] = assay: cell viability relative to DMSO; higher = less toxic
U2OS [14] = assay: relative viability EC50 (midpoint between 100% and the lowest measured viability); higher = less toxic
U2OS [15] = assay: drug sensitivity score (DSS) for viability; higher = more toxic; extreme values may be limits of the assay

| Compound | cell viability (Caco-2 [1]; 1 nM) [%] | cell viability (Caco-2 [1]; 10 nM) [%] | cell viability (Caco-2 [1]; 100 nM) [%] | cell viability (Caco-2 [1]; 1000 nM) [%] | cell viability (Caco-2 [1]; 10000 nM) [%] | cell viability (Calu-3 [2]; 1 nM) [%] | cell viability (Calu-3 [2]; 10 nM) [%] | cell viability (Calu-3 [2]; 100 nM) [%] | cell viability (Calu-3 [2]; 1000 nM) [%] | cell viability (Calu-3 [2]; 10000 nM) [%] | cell viability (HepG2 [3]; 1 nM) [%] | cell viability (HepG2 [3]; 10 nM) [%] | cell viability (HepG2 [3]; 100 nM) [%] | cell viability (HepG2 [3]; 1000 nM) [%] | cell viability (HepG2 [3]; 10000 nM) [%] | cell viability (Vero E6 [4]; 1 nM) [%] | cell viability (Vero E6 [4]; 10 nM) [%] | cell viability (Vero E6 [4]; 100 nM) [%] | cell viability (Vero E6 [4]; 1000 nM) [%] | cell viability (Vero E6 [4]; 10000 nM) [%] | relative viability EC50 (Caco-2 [5]) [µM] | relative viability EC50 (Calu-3 [6]) [µM] | relative viability EC50 (HepG2 [7]) [µM] | relative viability EC50 (Vero E6 [8]) [µM] | drug sensitivity score (Caco-2 [9]) | drug sensitivity score (Calu-3 [10]) | drug sensitivity score (HepG2 [11]) | drug sensitivity score (Vero E6 [12]) | cell viability (U2OS [13]; 1 nM) [%] | cell viability (U2OS [13]; 10 nM) [%] | cell viability (U2OS [13]; 100 nM) [%] | cell viability (U2OS [13]; 1000 nM) [%] | cell viability (U2OS [13]; 10000 nM) [%] | relative viability EC50 (U2OS [14]) [µM] | drug sensitivity score (U2OS [15]) |
| --- | --- | --- | --- | --- | --- | --- | --- | --- | --- | --- | --- | --- | --- | --- | --- | --- | --- | --- | --- | --- | --- | --- | --- | --- | --- | --- | --- | --- | --- | --- | --- | --- | --- | --- | --- |
| CC(=O)Nc1nc2c(Oc3cc(-c4ccc(C(F)(F)F)cc4)ncn3)cccc2s1 [AMG-517] | 102 | 96.5 | 103 | 97.2 | 94.4 | 104 | 86.1 | 100 | 92.4 | 92.5 | 112 | 98.3 | 95.4 | 102 | 91.8 | 101 | 102 | 101 | 102 | 99.4 | > 10 | > 10 | > 10 | > 10 | 0 | 0 | 0 | 0 | – | – | – | – | – | – | – |
| C[C@@H](c1nc(-c2ccc(C#N)cc2)cs1)[C@](O)(Cn1cncn1)c1cc(F)ccc1F [isavuconazole] | 96.3 | 99.8 | 96 | 93.9 | 74.3 | 95.7 | 90.1 | 98.7 | 101 | 99.2 | 106 | 96 | 93.8 | 100 | 79.2 | 100 | 98 | 102 | 98.6 | 100 | – | > 10 | > 10 | > 10 | 1.8 | 0 | 0.6 | 0 | 98.2 | 102 | 93.9 | 101 | 90.9 | > 10 | 0 |
| Cc1cccc(C)c1NC(=O)C[N+](C)(C)C [QX-222] | 107 | 97 | 99.1 | 100 | 112 | 102 | 93.8 | 107 | 94.9 | 106 | 106 | 103 | 99 | 95.5 | 95.8 | 102 | 101 | 98.7 | 105 | 99.7 | > 10 | > 10 | > 10 | > 10 | 0 | 0 | 0 | 0 | – | – | – | – | – | – | – |
